In ChEMBL document CHEMBL3046330, “Synthesis and biological activity of hydrazidehydrazones and their corresponding 3-acetyl-2,5-disubstituted-2,3-dihydro-1,3,4-oxadiazoles” (Med Chem Res, 2012):
≈ marks a conversion by molar mass, not a printed value. Calls of active or inactive are those of the source. The rule behind the calls is not given here.

What was measured:
[1] = test system: Candida albicans; test: Antifungal activity against Candida albicans clinical isolate at 2000 ug/ml by agar diffusion method; assay type: functional; conditions: read-out: IZ
[2] = test system: RAW264.7; test: Cytotoxicity against Mus musculus (mouse) RAW264.7 cells up to 25 ug/ml; assay type: cell-based
[3] = test system: Candida parapsilosis; test: Antifungal activity against Candida parapsilosis NRRL Y-12696 after 24 hr by NCCLS broth microdilution method; assay type: functional; conditions: Lodderomyces parapsilosis, NRRL Y-12696, 24 h
[4] = Cytotoxicity against Sus scrofa (pig) LLC-PK11 cells assessed as cell viability up to 25 ug/ml after 48 hr by neutral red assay; assay type: cell-based; conditions: llc-pk11, 48 h
[5] = test system: SK-MEL; test: Cytotoxicity against Homo sapiens (human) SK-MEL cells assessed as cell viability up to 25 ug/ml after 48 hr by neutral red assay; assay type: functional, cell-based
[6] = test system: Vero; test: Cytotoxicity against Chlorocebus aethiops (African green monkey) Vero cells assessed as cell viability up to 25 ug/ml after 48 hr by neutral red assay; assay type: cell-based; conditions: chlorocebus sabaeus
[7] = test system: Candida albicans; test: Antifungal activity against Candida albicans NRRL Y-12983 after 24 hr by NCCLS broth microdilution method; assay type: functional; conditions: NRRL Y-12983, 24 h
[8] = test system: Pichia kudriavzevii; test: Antifungal activity against Pichia kudriavzevii NRRL Y-7179 after 24 hr by NCCLS broth microdilution method; assay type: functional; conditions: NRRL Y-7179, 24 h
[9] = test system: Nakaseomyces glabratus; test: Antifungal activity against Candida glabrata clinical isolate after 24 hr by NCCLS broth microdilution method; assay type: functional
[10] = test system: HL-60; test: Cytotoxicity against Homo sapiens (human) HL60 cells; assay type: cell-based
[11] = test system: BT-549; test: Cytotoxicity against Homo sapiens (human) BT549 cells assessed as cell viability up to 25 ug/ml after 48 hr by neutral red assay; assay type: functional, cell-based
[12] = target: Transcription factor Sp1 (Homo sapiens, UniProt P08047); test: Inhibition of Sp1 (unknown origin) up to 25 ug/ml by luciferase reporter gene assay
Transcription factor Sp1, sequence (P08047 whole entry): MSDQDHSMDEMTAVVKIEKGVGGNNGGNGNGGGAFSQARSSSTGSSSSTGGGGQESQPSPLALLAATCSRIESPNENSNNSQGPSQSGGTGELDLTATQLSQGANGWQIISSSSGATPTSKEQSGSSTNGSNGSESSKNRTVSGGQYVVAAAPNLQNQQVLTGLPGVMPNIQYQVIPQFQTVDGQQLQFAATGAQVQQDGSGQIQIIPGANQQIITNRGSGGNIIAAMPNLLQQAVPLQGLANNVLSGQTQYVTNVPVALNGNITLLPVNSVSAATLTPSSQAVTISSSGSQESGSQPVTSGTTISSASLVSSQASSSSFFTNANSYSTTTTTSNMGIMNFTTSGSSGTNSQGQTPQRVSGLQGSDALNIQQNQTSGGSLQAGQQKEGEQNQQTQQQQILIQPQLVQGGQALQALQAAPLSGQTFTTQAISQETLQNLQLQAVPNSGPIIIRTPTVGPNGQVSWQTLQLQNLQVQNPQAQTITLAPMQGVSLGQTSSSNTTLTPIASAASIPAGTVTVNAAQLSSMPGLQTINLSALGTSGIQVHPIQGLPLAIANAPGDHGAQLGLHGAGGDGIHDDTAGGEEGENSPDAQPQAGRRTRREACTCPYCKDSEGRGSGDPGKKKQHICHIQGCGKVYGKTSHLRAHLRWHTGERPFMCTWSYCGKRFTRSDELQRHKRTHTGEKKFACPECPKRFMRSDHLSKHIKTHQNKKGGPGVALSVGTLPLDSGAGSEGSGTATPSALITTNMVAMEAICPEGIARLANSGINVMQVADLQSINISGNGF

[13] = test system: SW1353; test: Inhibition of PMA-induced NFkappaB activity in Homo sapiens (human) SW1353 cells up to 25 ug/ml incubated for 30 min followed by PMA induction for 8 hr by luciferase reporter gene assay; assay type: cell-based
[14] = test system: SK-OV-3; test: Cytotoxicity against Homo sapiens (human) SKOV3 cells assessed as cell viability up to 25 ug/ml after 48 hr by neutral red assay; assay type: functional, cell-based
[15] = test system: Cyberlindnera jadinii; test: Antifungal activity against Cyberlindnera jadinii NRRL Y-900 after 24 hr by NCCLS broth microdilution method; assay type: functional; conditions: Williopsis jadinii, NRRL Y-900, 24 h
[16] = test system: Candida albicans; test: Antifungal activity against Candida albicans ATCC 90028 after 24 hr by NCCLS broth microdilution method; assay type: functional; conditions: ATCC 90028, 24 h
[17] = target: T1, Nitric oxide synthase, inducible (Mus musculus) (UniProt P29477); test: Inhibition of iNOS in Mus musculus (mouse) RAW264.7 cells assessed as inhibition of LPS-induced nitrite production up to 25 ug/ml incubated for 30 min prior to LPS challenge measured after 24 hr by Griess assay relative to vehicle-treated control; assay type: cell-based
T1 sequence (whole entry): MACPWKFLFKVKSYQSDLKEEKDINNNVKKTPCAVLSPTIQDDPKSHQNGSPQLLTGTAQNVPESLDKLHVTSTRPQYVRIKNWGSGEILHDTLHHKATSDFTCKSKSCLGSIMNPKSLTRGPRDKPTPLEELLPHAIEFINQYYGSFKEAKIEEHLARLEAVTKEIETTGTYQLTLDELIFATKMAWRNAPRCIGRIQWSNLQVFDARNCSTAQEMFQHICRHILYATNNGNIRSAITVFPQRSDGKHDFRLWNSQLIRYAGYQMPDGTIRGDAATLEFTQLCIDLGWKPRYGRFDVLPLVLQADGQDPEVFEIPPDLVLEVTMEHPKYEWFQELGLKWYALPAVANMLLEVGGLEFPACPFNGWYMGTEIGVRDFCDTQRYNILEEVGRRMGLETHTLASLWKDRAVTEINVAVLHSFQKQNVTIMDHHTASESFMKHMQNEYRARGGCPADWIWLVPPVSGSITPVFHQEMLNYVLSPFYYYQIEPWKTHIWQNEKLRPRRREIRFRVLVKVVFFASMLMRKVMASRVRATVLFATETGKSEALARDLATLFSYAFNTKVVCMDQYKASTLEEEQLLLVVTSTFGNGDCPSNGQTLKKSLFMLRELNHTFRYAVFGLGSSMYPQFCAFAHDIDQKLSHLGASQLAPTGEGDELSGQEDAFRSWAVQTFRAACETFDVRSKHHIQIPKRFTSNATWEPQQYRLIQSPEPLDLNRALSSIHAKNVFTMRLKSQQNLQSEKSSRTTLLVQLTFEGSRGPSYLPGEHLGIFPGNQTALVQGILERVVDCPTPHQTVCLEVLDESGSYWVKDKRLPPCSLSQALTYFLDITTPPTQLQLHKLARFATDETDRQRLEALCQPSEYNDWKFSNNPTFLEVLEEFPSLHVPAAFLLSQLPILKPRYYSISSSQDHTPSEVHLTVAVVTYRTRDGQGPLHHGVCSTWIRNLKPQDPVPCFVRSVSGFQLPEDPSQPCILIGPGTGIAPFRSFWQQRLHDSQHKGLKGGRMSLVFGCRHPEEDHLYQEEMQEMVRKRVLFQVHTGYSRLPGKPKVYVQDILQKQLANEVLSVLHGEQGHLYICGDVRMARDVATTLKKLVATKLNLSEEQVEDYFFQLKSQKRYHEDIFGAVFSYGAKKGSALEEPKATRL

[18] = test system: HL-60; test: Antioxidant activity in PMA-stimulated Homo sapiens (human) HL60 cells assessed as inhibition of intracellular ROS generation incubated for 30 min prior to PMA stimulation measured after 30 min by DCFH-DA assay; assay type: functional, cell-based
[19] = test system: Candida tropicalis; test: Antifungal activity against Candida tropicalis NRRL Y-12968 at 2000 ug/ml by agar diffusion method; assay type: functional; conditions: read-out: IZ
[20] = test system: KB; test: Cytotoxicity against Homo sapiens (human) KB cells assessed as cell viability up to 25 ug/ml after 48 hr by neutral red assay; assay type: functional, cell-based
[21] = test system: Candida tropicalis; test: Antifungal activity against Candida tropicalis NRRL Y-12968 after 24 hr by NCCLS broth microdilution method; assay type: functional; conditions: NRRL Y-12968, 24 h
[22] = test system: HL-60; test: Cytotoxicity against Homo sapiens (human) HL60 cells up to 25 ug/ml; assay type: cell-based
[23] = test system: Candida albicans; test: Antifungal activity against Candida albicans clinical isolate after 24 hr by NCCLS broth microdilution method; assay type: functional
[24] = Inhibition of PMA-induced NFkappaB activity in Homo sapiens (human) SW1353 cells incubated for 30 min followed by PMA induction for 8 hr by luciferase reporter gene assay; assay type: cell-based
[25] = target: T2, Nitric oxide synthase, inducible (Mus musculus, UniProt P29477); test: Inhibition of iNOS in Mus musculus (mouse) RAW264.7 cells assessed as inhibition of LPS-induced nitrite production incubated for 30 min prior to LPS challenge measured after 24 hr by Griess assay; assay type: cell-based
T2 sequence (P29477 whole entry): T1 sequence (whole entry)

Structure (SMILES) | zone of inhibition at 2000 µg/mL [1] | Activity [2] | MIC [3] | Activity [4] | Activity [5] | Activity [6] | MIC [7] | MIC [8] | MIC [9] | IC50 [10] | Activity [11] | inhibition (INH) [12] | inhibition [13] | Activity [14] | MIC [15] | MIC [16] | IC50 [18] | zone of inhibition at 2000 µg/mL [19] | Activity [20] | MIC [21] | also measured
COc1ccc(/C=N/NC(=O)c2ccc(F)cc2)cc1 | 9 mm | Non-toxic | 500 µg/mL (≈ 1840 µM) | Not Active | inactive | Not Active | 500 µg/mL (≈ 1840 µM) | 500 µg/mL (≈ 1840 µM) | 250 µg/mL (≈ 918 µM) | 20 µg/mL (≈ 73.5 µM) | inactive | Not Active | inactive | inactive | 500 µg/mL (≈ 1840 µM) | 500 µg/mL (≈ 1840 µM) | 2.5 µg/mL (≈ 9.18 µM) | 9 mm | inactive | 1000 µg/mL (≈ 3670 µM) | inhibition [17]: inactive
O=C(N/N=C/c1ccc(F)cc1)c1ccc(F)cc1 | 9 mm | Non-toxic | 500 µg/mL (≈ 1920 µM) | Not Active | inactive | Not Active | 500 µg/mL (≈ 1920 µM) | 500 µg/mL (≈ 1920 µM) | – | – | inactive | Not Active | – | inactive | 500 µg/mL (≈ 1920 µM) | 500 µg/mL (≈ 1920 µM) | 20 µg/mL (≈ 76.9 µM) | 9 mm | inactive | 500 µg/mL (≈ 1920 µM) | Activity [22]: Non-toxic; MIC [23]: 250 µg/mL (≈ 961 µM); IC50 [24]: 15 µg/mL (≈ 57.6 µM); inhibition [17]: inactive
COc1ccc(/C=N/NC(=O)c2ccc(F)cc2)cc1O | 9 mm | Non-toxic | 500 µg/mL (≈ 1730 µM) | Not Active | inactive | Not Active | 500 µg/mL (≈ 1730 µM) | 500 µg/mL (≈ 1730 µM) | 250 µg/mL (≈ 867 µM) | – | inactive | Not Active | inactive | inactive | 500 µg/mL (≈ 1730 µM) | 500 µg/mL (≈ 1730 µM) | 0.9 µg/mL (≈ 3.12 µM) | 9 mm | inactive | 250 µg/mL (≈ 867 µM) | Activity [22]: Non-toxic; IC50 [25]: 76.3 µM
O=C(N/N=C/c1ccco1)c1ccc(F)cc1 | 9 mm | Non-toxic | 500 µg/mL (≈ 2150 µM) | Not Active | inactive | Not Active | 500 µg/mL (≈ 2150 µM) | 500 µg/mL (≈ 2150 µM) | 250 µg/mL (≈ 1080 µM) | 27 µg/mL (≈ 116 µM) | inactive | Not Active | inactive | inactive | 500 µg/mL (≈ 2150 µM) | 500 µg/mL (≈ 2150 µM) | 0.7 µg/mL (≈ 3.01 µM) | 9 mm | inactive | 500 µg/mL (≈ 2150 µM) | MIC [23]: 250 µg/mL (≈ 1080 µM); IC50 [25]: > 108 µM
